Experimental findings from ChEMBL document CHEMBL4392848, “Proline-based hydroxamates targeting the zinc-dependent deacetylase LpxC: Synthesis, antibacterial properties, and docking studies” (Bioorg Med Chem, 2019) are described below.

Values after ≈ are worked out from the molar mass of the structure shown. Active and inactive are the calls of the source. A value given as a limit tells only on which side of the number the result lay.

Series [1] relates to Klebsiella oxytoca. Description: Antibacterial activity against Klebsiella oxytoca assessed as diameter of inhibition zone measured after 24 hrs by agar disc diffusion method. It counts as functional.
The test system of series [2] is Enterobacter cloacae. Description: Antibacterial activity against Enterobacter cloacae assessed as diameter of inhibition zone measured after 24 hrs by agar disc diffusion method. It counts as functional.
Series [3] concerns the target Collagenase 3 (Homo sapiens, UniProt P45452). Description: Inhibition of human MMP13 using (7-methoxycoumarin-4-yl)acetyl-Pro-Leu-Gly-Leu-(3-(2,4-dinitrophenyl)-L-2,3-diamino-propionyl)Ala-Arg-NH2 as substrate preincubated for 30 mins followed by substrate addition and measured by fluorescence assay.
Series [4] relates to Citrobacter freundii. Description: Antibacterial activity against Citrobacter freundii assessed as diameter of inhibition zone measured after 24 hrs by agar disc diffusion method. Format: functional. On the technique in general: Agar diffusion results depend on both activity and mobility in agar.
Series [5] deals with 72 kDa type IV collagenase (Homo sapiens, UniProt P08253). Description: Inhibition of human MMP2 using (7-methoxycoumarin-4-yl)acetyl-Pro-Leu-Gly-Leu-(3-(2,4-dinitrophenyl)-L-2,3-diamino-propionyl)Ala-Arg-NH2 as substrate preincubated for 30 mins followed by substrate addition and measured by fluorescence assay.
Sequence of 72 kDa type IV collagenase (P08253 whole entry): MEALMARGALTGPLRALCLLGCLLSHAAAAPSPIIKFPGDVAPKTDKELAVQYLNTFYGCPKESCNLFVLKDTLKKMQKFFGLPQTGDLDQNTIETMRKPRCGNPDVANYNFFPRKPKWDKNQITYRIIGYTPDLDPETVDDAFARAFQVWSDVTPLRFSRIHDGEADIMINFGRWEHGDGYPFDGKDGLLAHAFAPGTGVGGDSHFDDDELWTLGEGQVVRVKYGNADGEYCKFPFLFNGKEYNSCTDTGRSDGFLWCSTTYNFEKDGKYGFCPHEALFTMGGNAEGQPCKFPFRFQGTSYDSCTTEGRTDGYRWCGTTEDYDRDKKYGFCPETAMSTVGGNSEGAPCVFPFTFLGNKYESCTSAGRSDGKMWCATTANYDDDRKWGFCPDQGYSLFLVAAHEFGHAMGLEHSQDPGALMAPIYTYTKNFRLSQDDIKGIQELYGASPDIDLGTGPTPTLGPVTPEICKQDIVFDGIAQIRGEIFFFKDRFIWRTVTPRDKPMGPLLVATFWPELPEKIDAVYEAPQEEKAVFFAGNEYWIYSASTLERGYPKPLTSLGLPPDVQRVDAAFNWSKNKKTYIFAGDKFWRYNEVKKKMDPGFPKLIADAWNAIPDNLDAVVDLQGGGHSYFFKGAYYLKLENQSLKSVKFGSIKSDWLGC
Series [6] can be described thus: Inhibition of Escherichia coli LpxC C63A mutant using UDP-3-O-[(R)-3-hydroxymyristoyl]-N-acetylglucosamine as substrate measured after 30 mins by fluorescence based microplate assay.
The subject of series [7] is Klebsiella aerogenes. Description: Antibacterial activity against Enterobacter aerogenes assessed as diameter of inhibition zone measured after 24 hrs by agar disc diffusion method. It counts as functional.
Series [8] has as its system Escherichia coli. Description: Antibacterial activity against Escherichia coli D22 measured after 20 hrs by microdilution method. It counts as functional. Conditions: D22, 20 h. (In general: In broth dilution the organism is exposed to a series of concentrations in liquid medium.)
Series [9] has as its system Escherichia coli. Description: Inhibition of Escherichia coli LpxC C63A mutant at 200 uM using UDP-3-O-[(R)-3-hydroxymyristoyl]-N-acetylglucosamine as substrate measured after 30 mins by fluorescence based microplate assay.
Series [10] concerns the target Matrix metalloproteinase-9 (Homo sapiens, UniProt P14780). Description: Inhibition of human MMP9 using (7-methoxycoumarin-4-yl)acetyl-Pro-Leu-Gly-Leu-(3-(2,4-dinitrophenyl)-L-2,3-diamino-propionyl)Ala-Arg-NH2 as substrate preincubated for 30 mins followed by substrate addition and measured by fluorescence assay.
Series [11] concerns Pseudomonas aeruginosa. Description: Antibacterial activity against Pseudomonas aeruginosa assessed as diameter of inhibition zone measured after 24 hrs by agar disc diffusion method. It counts as functional.
Series [12] concerns Proteus vulgaris. Description: Antibacterial activity against Proteus vulgaris assessed as diameter of inhibition zone measured after 24 hrs by agar disc diffusion method. Format: functional.
In series [13] the test system is Proteus mirabilis. Description: Antibacterial activity against Proteus mirabilis assessed as diameter of inhibition zone measured after 24 hrs by agar disc diffusion method. It counts as functional.
Series [14] deals with Escherichia coli. Description: Antibacterial activity against Escherichia coli BL21(DE3) measured after 20 hrs by microdilution method. It counts as functional.
Series [15] relates to Escherichia coli. Description: Antibacterial activity against Escherichia coli D22 assessed as diameter of inhibition zone measured after overnight incubation by agar disc diffusion method. It counts as functional.
Series [16] concerns Klebsiella pneumoniae. Description: Antibacterial activity against Klebsiella pneumoniae assessed as diameter of inhibition zone measured after 24 hrs by agar disc diffusion method. It counts as functional.
Series [17] relates to Escherichia coli. Description: Antibacterial activity against Escherichia coli BL21(DE3) assessed as diameter of inhibition zone measured after overnight incubation by agar disc diffusion method. Format: functional.
A short description of series [18]: Selectivity ratio of IC50 for human MMP9 to IC50 for human MMP13. Format: ADME.
Series [19] in a line: Selectivity ratio of IC50 for human MMP8 to IC50 for human MMP2. It counts as ADME.
Series [20] is described as follows: Selectivity ratio of IC50 for human MMP8 to IC50 for human MMP13. It counts as ADME.
Series [21] deals with MMP-2/MMP-9 (Homo sapiens, UniProt P08253+P14780). Description: Selectivity ratio of IC50 for human MMP9 to IC50 for human MMP2. It counts as ADME.
The target of series [22] is Neutrophil collagenase (Homo sapiens, UniProt P22894). Description: Inhibition of human MMP8 using (7-methoxycoumarin-4-yl)acetyl-Pro-Leu-Gly-Leu-(3-(2,4-dinitrophenyl)-L-2,3-diamino-propionyl)Ala-Arg-NH2 as substrate preincubated for 30 mins followed by substrate addition and measured by fluorescence assay.
Sequence of Neutrophil collagenase (P22894 whole entry): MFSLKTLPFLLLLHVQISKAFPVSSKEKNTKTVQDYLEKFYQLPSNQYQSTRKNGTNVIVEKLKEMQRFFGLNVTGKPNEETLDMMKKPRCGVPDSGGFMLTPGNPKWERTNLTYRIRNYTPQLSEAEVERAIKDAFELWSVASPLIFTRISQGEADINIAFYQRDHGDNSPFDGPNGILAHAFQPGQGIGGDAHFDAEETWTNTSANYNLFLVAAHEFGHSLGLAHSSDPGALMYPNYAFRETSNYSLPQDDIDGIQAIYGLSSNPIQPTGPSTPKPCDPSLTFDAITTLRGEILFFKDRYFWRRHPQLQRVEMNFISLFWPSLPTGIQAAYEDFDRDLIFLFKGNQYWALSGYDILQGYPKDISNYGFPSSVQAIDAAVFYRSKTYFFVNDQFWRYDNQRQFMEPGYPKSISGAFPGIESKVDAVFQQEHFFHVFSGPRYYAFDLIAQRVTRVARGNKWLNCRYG

Sequence of Matrix metalloproteinase-9 (P14780 whole entry, the tested form may be a part): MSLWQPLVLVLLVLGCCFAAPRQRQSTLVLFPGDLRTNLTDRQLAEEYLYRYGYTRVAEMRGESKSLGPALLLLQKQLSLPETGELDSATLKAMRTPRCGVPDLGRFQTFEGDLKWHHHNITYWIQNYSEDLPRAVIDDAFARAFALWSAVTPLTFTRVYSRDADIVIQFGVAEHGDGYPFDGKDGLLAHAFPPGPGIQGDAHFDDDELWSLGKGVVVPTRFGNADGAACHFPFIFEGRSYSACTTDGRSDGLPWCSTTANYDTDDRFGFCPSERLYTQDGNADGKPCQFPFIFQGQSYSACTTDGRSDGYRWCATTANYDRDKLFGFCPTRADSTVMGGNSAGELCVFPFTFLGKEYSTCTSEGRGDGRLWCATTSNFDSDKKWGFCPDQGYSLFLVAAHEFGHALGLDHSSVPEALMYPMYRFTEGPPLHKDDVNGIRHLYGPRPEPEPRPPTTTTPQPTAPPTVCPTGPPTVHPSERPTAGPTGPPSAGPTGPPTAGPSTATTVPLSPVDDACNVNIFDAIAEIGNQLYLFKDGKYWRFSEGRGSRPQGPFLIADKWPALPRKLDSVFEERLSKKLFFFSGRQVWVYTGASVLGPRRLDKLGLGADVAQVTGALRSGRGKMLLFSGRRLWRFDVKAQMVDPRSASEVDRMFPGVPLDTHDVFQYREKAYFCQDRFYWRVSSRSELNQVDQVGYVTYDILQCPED

In general, IC50 refers to the concentration at which inhibition is half-maximal. Higher therefore signals weaker potency in that assay. In general, Ki refers to the equilibrium dissociation constant of an inhibitor or competing ligand from its target. Low readings indicate tighter binding, high ones weaker binding. In general, MIC refers to the smallest concentration in the dilution series that meets the test's criterion for growth inhibition. A low value points to inhibition by little substance. As to `O=C(NO)[C@H]1[C@H](O)[C@H](O)CN1C(=O)c1ccc(C#Cc2ccc(CN3CCSCC3)cc2)cc1`, the “diameter of the inhibition zone (DIZ)” value in [1] is given as 7 mm; in series [2] it was under 6 mm; in series [4], under 6 mm; in series [7] it was under 6 mm; in series [11], under 6 mm; in series [12] it was under 6 mm. Besides, the “diameter of the inhibition zone (DIZ)” value in [13] was under 6 mm; in [15], 8.3 mm; in [16], under 6 mm; in series [17], under 6 mm. Besides, the IC50 was 5000 nM in [3], over 10000 nM in series [5], over 200 µM in [6] and over 10 µM in series [10]. For the same molecule, in series [6], the inhibition constant Ki was over 27.6 µM. The MIC in series [8] was 128 µM (≈ 61.6 µg/mL); in series [14], over 256 µM. In addition, the inhibition result in [9] is “inactive”.
Consider `O=C(NO)[C@@H]1[C@H](O)[C@H](O)CN1C(=O)c1ccc(C#Cc2ccc(CN3CCOCC3)cc2)cc1`, for which the 50% inhibitory concentration (IC50) in series [3] is 39 nM; in series [5], 32 nM; in series [6], 2.5 µM; in [10], 1.8 µM; in [22] it was 172 nM. In series [6], this molecule showed a Ki of 0.34 µM. Also, the figures for the MIC in series [8] and in series [14] were 16 µM (≈ 7.45 µg/mL) and 128 µM (≈ 59.6 µg/mL), respectively. The “Ratio IC50” value in series [18] is 51; in series [19] it was 4 to 5; in [20], 4 to 5; in series [21], 51. Besides, the figures for the “diameter of the inhibition zone (DIZ)” value in [15] and in series [17] were 18 mm and under 6 mm, respectively.
On to `O=C(NO)[C@H]1[C@H](O)[C@H](O)CN1C(=O)c1ccc(C#Cc2ccc(CN3CCOCC3)cc2)cc1`, for which the “diameter of the inhibition zone (DIZ)” value is given as 8 mm in series [1]; under 6 mm in [2]; under 6 mm in series [4]; under 6 mm in series [7]; under 6 mm in series [11]; under 6 mm in series [12]. For the same molecule, the “diameter of the inhibition zone (DIZ)” value in [13], in series [15], in series [16] and in series [17] was under 6 mm throughout. Also, the 50% inhibitory concentration (IC50) in [3] is 4320 nM; in [5], over 10000 nM; in series [6] it was over 200 µM; in series [10], over 10 µM; in series [22] it was over 10000 nM. The Ki in [6] was over 27.6 µM. The MIC in [8] and in series [14] was over 256 µM throughout. Moreover, the inhibition result in [9] is “inactive”.
As for `O=C(NO)[C@@H]1CCCN1C(=O)c1ccc(C#Cc2ccc(CN3CCOCC3)cc2)cc1`, the “diameter of the inhibition zone (DIZ)” value in [1] is reported as 9 mm; in series [2], 13 mm; in series [4], 12 mm; in series [7], 15 mm; in series [11] it was under 6 mm; in series [12], 9 mm. The “diameter of the inhibition zone (DIZ)” value came out at 12 mm in series [13], 20 mm in [15], 15 mm in [16] and 13.2 mm in [17]. The half-inhibitory concentration (IC50) is 280 nM in series [3]; 570 nM in series [5]; 45.6 µM in [6]; 4 µM in series [10]; 2000 nM in series [22]. Further, the Ki in [6] is 6.3 µM. For the same molecule, the minimal inhibitory concentration (MIC) is 16 µM (≈ 6.94 µg/mL) in series [8] and 64 µM (≈ 27.7 µg/mL) in [14].
